# Measured values published in patent publication US4877881A, “Process of preparing pyrazoles, isoxazoles and analogs thereof having activity as 5-lipoxygenase inhibitors” (Warner-Lambert Company, priority 1988, dated 1989).
# Legend:
# Type in all cases: cell-based
# [1] = biological target: T1, 5-lipoxygenase (Homo sapiens, UniProt P09917); test: 5-Lipoxygenase Assay Using Isolated Human Leukocytes (5LOA2), 5-HETE formation; conditions: inhibition of 5-HETE formation, arachidonic acid 20 μM, A23187 10 μM, read-out: 5-LO(IC50 in μM)
# T1 construct: The formation of 5-HETE in human leukocytes is considered a measure of 5-lipoxygenase activity; endogenous in cells; host or cells: leukocytes isolated from fresh human blood
# T1 sequence (P09917 1-674): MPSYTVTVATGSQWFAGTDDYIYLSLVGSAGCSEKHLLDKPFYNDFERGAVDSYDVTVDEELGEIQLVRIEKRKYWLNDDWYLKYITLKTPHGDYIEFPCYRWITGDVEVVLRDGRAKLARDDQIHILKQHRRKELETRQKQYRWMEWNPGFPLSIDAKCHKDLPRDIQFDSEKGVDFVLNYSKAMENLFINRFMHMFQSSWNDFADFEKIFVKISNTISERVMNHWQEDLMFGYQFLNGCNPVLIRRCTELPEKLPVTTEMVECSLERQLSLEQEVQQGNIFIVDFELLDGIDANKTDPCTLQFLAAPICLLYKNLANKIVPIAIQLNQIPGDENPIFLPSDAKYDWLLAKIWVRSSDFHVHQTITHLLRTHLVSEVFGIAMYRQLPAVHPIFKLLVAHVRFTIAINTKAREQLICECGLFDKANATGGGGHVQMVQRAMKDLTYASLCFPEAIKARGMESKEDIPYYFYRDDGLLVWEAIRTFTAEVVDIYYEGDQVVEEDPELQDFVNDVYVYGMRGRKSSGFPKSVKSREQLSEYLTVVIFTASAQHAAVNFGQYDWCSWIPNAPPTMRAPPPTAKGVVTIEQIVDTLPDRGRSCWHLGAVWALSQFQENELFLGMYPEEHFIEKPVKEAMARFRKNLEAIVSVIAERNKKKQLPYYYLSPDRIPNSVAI
# Description: 5-Lipoxygenase Assay Using Isolated Human Leukocytes (5LOA2)
# The formation of 5-HETE in human leukocytes is considered a measure of 5-lipoxygenase activity. The protocol is described in the following.
# Fresh heparinized or EDTA treated human blood is mixed with 6% dextran-3% dextrose in isotonic saline in the ratio 0.25 ml dextran solution per 1.0 ml blood. After mixing the blood is allowed to sit at room temperature for about 90 minutes while the RBC's settle. During this period, the plasma is removed with a plastic pipette to nalgens tubes.
# The pellet, consisting of leukocytes and erythrocytes, is treated with 10 ml 0.87% ammonium chloride at room temperature for four minutes, lysing the red cells. At the end of four minutes the cells are diluted with a 2x volume of phosphate buffered saline, pH 7.4, and centrifuged for ten minutes. The cells are washed three times with the phosphate buffered saline. Any of the pelleted cell matter which is not easily resuspended is discarded during the washings--the material contains platelets (12-lipoxygenase activity).
# After washing, the cells are resuspended in phosphate buffered saline containing 1.0 mM 'calcium and 0.5 mM magnesium. After counting, the cells are diluted to 1.5-2.0×10^7 leukocytes per milliliter.
# To each polypropylene reaction tube is added 0.48 ml leukocytes in Ca-Mg phosphate buffered saline, pH 7.4; 1-5 μl test compound dissolved in DMSO and buffer; or DMSO for control tubes.
# The tubes preincubate at 37° C. for five minutes.
# The reaction is started by adding 20 μl of the following, 0.5 μl, 20 mM arachidonic acid--final concentration=20 μM; 1 μl, 5 mM calcium ionophore A23187--final concentration=10 μM; and 18.5 μl buffer.
# The reaction proceeds for five minutes, then is stopped by adding 0.5 ml, 0.5 mM ice-cold Tris buffer, pH 8.0. The tubes are chilled on ice for ten minutes and then extracted three times with a total of 3.5 ml ethyl acetate (3.0 ml removed).
# The tubes can be stored at this point. For extended storage, the tubes should be filled with nitrogen.
# The ethyl acetate is evaporated with a Sorvall Speed-Vac. The residue is dissolved in ethanol. The tubes can also be stored at this point at -20° C. under nitrogen.
# A portion of the ethanol solution is injected into the HPLC system for 5-HETE quantitation.
# Injections are made automatically with a Waters WISP 710B. The pump is a Spectra Physics SP8700. […] An RP C-18 column is used. The solvent system is isocratic; the solvent is 70% methanol and 30% 0.01M sodium acetate, pH 5.7, pumped at 1.0 ml/min. […] Using a 15 cm Alltech Nucleosil C-18 5 μM column provides for a sample turnaround time of about 16 minutes.
# [2] = biological target: T2, cyclooxygenase (Rattus norvegicus, UniProt Q63921); test: ARBC Whole Cell Cyclooxygenase Assay in RBL-1 cells (PGF2α RIA); conditions: RBL-1 intact cell cyclooxygenase; A23187 5 μM
# T2 construct: RBL-1 intact cell cyclooxygenase IC50 values; endogenous in cells; host or cells: RBL-1 rat basophilic leukemia cells (American Type Culture Collection)
# T2 sequence (Q63921 27-602): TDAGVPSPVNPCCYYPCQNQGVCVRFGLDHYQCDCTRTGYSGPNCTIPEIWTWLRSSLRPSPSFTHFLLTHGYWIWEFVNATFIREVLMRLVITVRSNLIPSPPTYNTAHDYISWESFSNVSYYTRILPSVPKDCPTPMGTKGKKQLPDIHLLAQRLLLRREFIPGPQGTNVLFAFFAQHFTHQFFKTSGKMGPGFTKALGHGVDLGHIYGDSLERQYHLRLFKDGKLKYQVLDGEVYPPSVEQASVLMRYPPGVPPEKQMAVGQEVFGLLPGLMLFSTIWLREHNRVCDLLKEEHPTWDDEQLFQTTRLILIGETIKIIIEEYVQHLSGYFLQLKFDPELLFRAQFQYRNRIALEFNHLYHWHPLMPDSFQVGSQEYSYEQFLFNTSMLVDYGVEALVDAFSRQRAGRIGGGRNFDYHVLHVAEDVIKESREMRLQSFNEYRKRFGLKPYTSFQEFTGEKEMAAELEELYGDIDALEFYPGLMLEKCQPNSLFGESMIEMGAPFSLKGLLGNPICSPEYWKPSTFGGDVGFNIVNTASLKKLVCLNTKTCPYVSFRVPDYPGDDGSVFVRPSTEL
# Description: (§1) ARBL/ARBC Whole Cell 5-Lipoxygenase and Cyclooxygenase Assays
# (§2) The rat basophilic leukemia cell line (RBL-1) was obtained from the American Type Culture Collection (Rockville, Md.).
# (§3) Radioimmuno assay (RIA) kits of LTB4 and PGF2α were obtained from Amersham (Arlington Heights, Ill.) and Seragen (Boston, Mass.) respectively.
# (§4) All tissue culture media were obtained from GIBO (Gran Island, N.Y.).
# (§5) RBL-1 cells were grown in culture (suspension) in Eagle's minimum essential medium supplemented with 12% fetal bovine serum and 1:100 antibiotic-antimycotic mixture at 37° C. in an incubator supplied with air-5% carbon dioxide. Cells were harvested by centrifugation. They were washed with cold phosphate buffered saline pH 7.4 (PBS; NaCl, 7.1 g; Na2 HOP4, 1.15 g; KH2 PO4, 0.2 g; and KCl, 0.2 g/L). […] Calcium ionophore A23187 (5 μM) was added and cells were incubated for seven minutes at 37° C. The reaction was stopped by chilling the tubes in ice for ten minutes. Cells were separated by centrifugation and the supernatant was stored at -20°. Aliquots (100 μl) were analyzed for LTB4 and PGF2α using radioimmuno assay kits as provided by the supplier.
# [3] = biological target: T3, 5-lipoxygenase (Rattus norvegicus, UniProt P12527); test: ARBL Whole Cell 5-Lipoxygenase Assay in RBL-1 cells (LTB4 RIA); conditions: RBL-1 intact cell 5-lipoxygenase; A23187 5 μM
# T3 construct: ARBL/ARBC Whole Cell 5-Lipoxygenase and Cyclooxygenase Assays; endogenous in cells; host or cells: RBL-1 rat basophilic leukemia cells (American Type Culture Collection)
# T3 sequence (P12527 1-673): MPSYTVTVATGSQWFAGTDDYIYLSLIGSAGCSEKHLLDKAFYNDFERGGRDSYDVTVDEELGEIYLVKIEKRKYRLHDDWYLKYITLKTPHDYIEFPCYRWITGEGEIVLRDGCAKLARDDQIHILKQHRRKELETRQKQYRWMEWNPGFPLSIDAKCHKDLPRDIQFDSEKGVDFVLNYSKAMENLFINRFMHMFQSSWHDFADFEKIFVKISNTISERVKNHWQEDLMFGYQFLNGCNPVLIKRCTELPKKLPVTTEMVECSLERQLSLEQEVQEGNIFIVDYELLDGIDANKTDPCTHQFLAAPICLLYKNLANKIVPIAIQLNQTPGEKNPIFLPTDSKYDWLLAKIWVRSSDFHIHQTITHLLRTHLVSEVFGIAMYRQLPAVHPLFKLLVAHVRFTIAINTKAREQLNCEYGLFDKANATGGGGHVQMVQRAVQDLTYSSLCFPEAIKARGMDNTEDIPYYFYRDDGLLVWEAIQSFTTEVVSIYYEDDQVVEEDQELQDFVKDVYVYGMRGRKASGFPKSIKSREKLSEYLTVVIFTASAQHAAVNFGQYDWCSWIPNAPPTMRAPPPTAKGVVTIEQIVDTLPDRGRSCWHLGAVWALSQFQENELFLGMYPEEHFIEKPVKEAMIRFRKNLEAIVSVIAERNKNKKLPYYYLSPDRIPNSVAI
# Description: as §1, §2, §3, §4, §5
SMILES,IC50 [1] [µM],IC50 [2] [µM],IC50 [3] [µM]
"COc1cccc(C=Cc2cc(C)no2)c1O [Example 32F, 5-[β-(2'-Hydroxy-3'-methoxyphenyl)ethenyl]-3-methylisoxazole]",–,30,12
"Cc1cc(C=Cc2cc(Cl)cc(Cl)c2O)on1 [Example 32J, 5-[β-(2'-Hydroxy-3',5'-dichlorophenyl)ethenyl]-3-methylisoxazole]",–,> 30,4.7
"COC(=O)C(=Cc1cc(OC)c(O)c(OC)c1)c1cc(C)no1 [Example 40, 5-[β-Carbomethoxy-β-(4'-hydroxy-3',5'-dimethoxyphenyl)ethenyl]-3-methylisoxazole]",–,> 25,> 10
"COC(=O)C(=Cc1cc(Cl)c(O)c(Cl)c1)c1cc(C)no1 [Example 41, 5-[α-Carbomethoxy-β-(4'-hydroxy-3,5-dichlorophenyl)ethenyl]-3-methylisoxazole]",–,5,> 30
"COC(=O)C(=Cc1cc(C)c(O)c(C)c1)c1cc(C)no1 [Example 43, 5-[α-Carbomethoxy-β-(4'-hydroxy-3',5'-dimethylphenyl)ethenyl]-3-methylisoxazole]",–,2.2,17
"COC(=O)C(=Cc1cc(Br)c(O)c(Br)c1)c1cc(C)no1 [Example 44, 5-[α-Carbomethoxy-β-(4'-hydroxy-3',5'-dibromophenyl)ethenyl]-3-methylisoxazole]",–,5.2,12
"COC(=O)C(=Cc1cc(Br)c(O)c(OC)c1)c1cc(C)no1 [Example 46A, 5-[α-Carbomethoxy-β-(3'-methoxy-4'-hydroxy-5'-bromophenyl)ethenyl]-3-methylisoxazole]",–,12,> 30
"Cc1cc(C(=Cc2cc(C(C)(C)C)c(O)c(C(C)(C)C)c2)C(=O)O)on1 [Example 51, 5-[α-Carboxy-β-(4'-hydroxy-3',5'-bis(1,1-dimethylethyl)phenyl)ethenyl]-3-methylisoxazole]",–,2.5,20
"Cc1cc(C(=Cc2cc(C)c(O)c(C)c2)C(=O)O)on1 [Example 52, 5-[α-Carboxy-β-(4'-hydroxy-3',5'-dimethylphenyl)ethenyl]-3-methylisoxazole]",–,> 20,> 20

# Next, values leading:
IC50 [1] [µM],IC50 [2] [µM],IC50 [3] [µM],SMILES
> 20,–,–,"COc1cc(CCc2cc(C)n[nH]2)ccc1O [Example 6, 3-[β-(4'-Hydroxy-3'-methoxyphenyl)ethyl]-5-methylpyrazole]"
> 20,–,–,"COc1ccc(C=Cc2cc(C)[nH]n2)cc1O [Example 8, 3-[β-(4'-Methoxy-3'-hydroxyphenyl)ethenyl]-5-methylpyrazole]"
18,11,5.2,"CCOC(=O)c1cc(C=Cc2ccc(O)c(OC)c2)n[nH]1 [Example 10, Ethyl-3-[β-(3-methoxy-4-hydroxyphenyl)ethenyl]-1H-pyrazole-5-carboxylate]"
–,2.8,4.5,"COc1cc(C=Cc2cc(-c3ccccc3)no2)ccc1O [Example 32E, 5-[β-(4'-Hydroxy-3'-methoxyphenyl)ethenyl]-3-phenyl-isoxazole]"
